In brackets after ≈: the same amount, converted by molar mass.
How the values were obtained:
[1] = system: Candida albicans; assay: Antifungal activity against Candida albicans CMAM 0577 after 48 to 72 hrs by broth microdilution method; assay type: functional
[2] = system: Klebsiella aerogenes; assay: Antibacterial activity against Enterobacter aerogenes CMCC(B) 45103 after 24 hrs by two fold dilution method; assay type: functional
[3] = system: Proteus vulgaris; assay: Antimicrobial activity against Proteus vulgaris CMCC(B) 49001 after 24 hrs by two fold dilution method; assay type: functional
[4] = Toxicity in human erythrocytes assessed as haemolysis upto 500 ug/mL; assay type: cell-based, Erythrocyte; details: read-out: Activity
[5] = system: Candida albicans; assay: Antifungal activity against Candida albicans ATCC 10231 after 48 to 72 hrs by broth microdilution method; assay type: functional
[6] = system: Staphylococcus aureus; assay: Antibacterial activity against methicillin-resistant Staphylococcus aureus CMAH 0515 after 24 hrs by two fold dilution method; assay type: functional
[7] = system: Candida albicans; assay: Antifungal activity against Candida albicans CMAH 0511 after 48 to 72 hrs by broth microdilution method; assay type: functional
[8] = system: Pseudomonas aeruginosa; assay: Antimicrobial activity against Pseudomonas aeruginosa ATCC 27853 after 24 hrs by two fold dilution method; assay type: functional; details: ATCC 27853, 24 h
[9] = system: Candida albicans; assay: Antifungal activity against Candida albicans CMAH 0572 after 48 to 72 hrs by broth microdilution method; assay type: functional
[10] = system: Cryptococcus neoformans; assay: Antifungal activity against Cryptococcus neoformans ATCC 90112 after 48 to 72 hrs by broth microdilution method; assay type: functional
[11] = Toxicity in human erythrocytes assessed as haemolysis upto 30 ug/mL; assay type: cell-based, Erythrocyte; details: read-out: Activity
[12] = system: Candida albicans; assay: Antifungal activity against fluconazole-resistant Candida albicans CMAH 0520 after 48 to 72 hrs by broth microdilution method; assay type: functional
[13] = system: Staphylococcus aureus; assay: Antibacterial activity against methicillin-susceptible Staphylococcus aureus ATCC 25923 after 24 hrs by two fold dilution method; assay type: functional; details: ATCC 25923, 24 h
[14] = system: Bacillus subtilis; assay: Antimicrobial activity against Bacillus subtilis after 24 hrs by two fold dilution method; assay type: functional
[15] = system: Candida albicans; assay: Antifungal activity against Candida albicans CMAH 0507 after 48 to 72 hrs by broth microdilution method; assay type: functional
[16] = system: Candida albicans; assay: Antifungal activity against fluconazole-resistant Candida albicans CMAM 0597 after 48 to 72 hrs by broth microdilution method; assay type: functional
[17] = system: Staphylococcus aureus; assay: Antibacterial activity against methicillin-resistant Staphylococcus aureus CMAH 0504 after 24 hrs by two fold dilution method; assay type: functional
[18] = system: Micrococcus luteus; assay: Antimicrobial activity against Micrococcus luteus CMCC(B) 28001 after 24 hrs by two fold dilution method; assay type: functional
[19] = system: Saccharomyces cerevisiae; assay: Antimicrobial activity against Saccharomyces cerevisiae after 48 to 72 hrs by broth microdilution method; assay type: functional
[20] = system: Staphylococcus aureus; assay: Antibacterial activity against methicillin-resistant Staphylococcus aureus CMAH 0430 after 24 hrs by two fold dilution method; assay type: functional
[21] = system: Candida albicans; assay: Antifungal activity against Candida albicans CMAH 0501 after 48 to 72 hrs by broth microdilution method; assay type: functional
[22] = system: Candida albicans; assay: Antifungal activity against Candida albicans CMAM 0592 after 48 to 72 hrs by broth microdilution method; assay type: functional
[23] = system: Aspergillus sp.; assay: Antifungal activity against Aspergillus sp. after 48 to 72 hrs by broth microdilution method; assay type: functional
[24] = system: Candida albicans; assay: Antifungal activity against Candida albicans CMAH 0527 after 48 to 72 hrs by broth microdilution method; assay type: functional
[25] = system: Candida albicans; assay: Antifungal activity against Candida albicans CMAH 0503 after 48 to 72 hrs by broth microdilution method; assay type: functional
[26] = Toxicity in human erythrocytes assessed as haemolysis upto 4000 ug/mL; assay type: cell-based, Erythrocyte; details: read-out: Activity
[27] = system: Candida albicans; assay: Antifungal activity against Candida albicans CMAM 0594 after 48 to 72 hrs by broth microdilution method; assay type: functional
[28] = system: Rhodotorula glutinis; assay: Antimicrobial activity against Rhodotorula glutinis SYM 2209 after 48 to 72 hrs by broth microdilution method; assay type: functional
[29] = system: Escherichia coli; assay: Antimicrobial activity against Escherichia coli ATCC 25922 after 24 hrs by two fold dilution method; assay type: functional; details: ATCC 25922, 24 h

## COC(=O)[C@H](Cc1c[nH]c2ccccc12)NC(=O)c1ccccn1
[1]
  MFC: 64 µg/mL (≈ 198 µM)
  MIC: 32 µg/mL (≈ 99 µM)
[2]
  MIC: 64 µg/mL (≈ 198 µM)
[3]
  MBC: > 128 µg/mL
  MIC: 32 µg/mL (≈ 99 µM)
[4]
  hemolysis: 2.52%
[5]
  MFC: 4 µg/mL (≈ 12.4 µM)
  MIC: 8 µg/mL (≈ 24.7 µM)
[6]
  MBC: 4 µg/mL (≈ 12.4 µM)
  MIC: 1 µg/mL (≈ 3.09 µM)
[7]
  MFC: 4 µg/mL (≈ 12.4 µM)
  MIC: 2 µg/mL (≈ 6.19 µM)
[8]
  MBC: > 128 µg/mL
  MIC: 32 µg/mL (≈ 99 µM)
[9]
  MFC: 64 µg/mL (≈ 198 µM)
  MIC: 32 µg/mL (≈ 99 µM)
[10]
  MFC: 2 µg/mL (≈ 6.19 µM)
  MIC: 1 µg/mL (≈ 3.09 µM)
[11]
  hemolysis: 50%
[12]
  MFC: 32 µg/mL (≈ 99 µM)
  MIC: 8 µg/mL (≈ 24.7 µM)
[13]
  MBC: 8 µg/mL (≈ 24.7 µM)
  MIC: 1 µg/mL (≈ 3.09 µM)
[14]
  MBC: 16 µg/mL (≈ 49.5 µM)
  MIC: 4 µg/mL (≈ 12.4 µM)
[15]
  MFC: 16 µg/mL (≈ 49.5 µM)
  MIC: 8 µg/mL (≈ 24.7 µM)
[16]
  MFC: 32 µg/mL (≈ 99 µM)
  MIC: 8 µg/mL (≈ 24.7 µM)
[17]
  MBC: 8 µg/mL (≈ 24.7 µM)
  MIC: 2 µg/mL (≈ 6.19 µM)
[18]
  MBC: 8 µg/mL (≈ 24.7 µM)
  MIC: 4 µg/mL (≈ 12.4 µM)
[19]
  MFC: 8 µg/mL (≈ 24.7 µM)
  MIC: 4 µg/mL (≈ 12.4 µM)
[20]
  MBC: 4 µg/mL (≈ 12.4 µM)
  MIC: 1 µg/mL (≈ 3.09 µM)
[21]
  MFC: 4 µg/mL (≈ 12.4 µM)
  MIC: 16 µg/mL (≈ 49.5 µM)
[22]
  MFC: 16 µg/mL (≈ 49.5 µM)
  MIC: 4 µg/mL (≈ 12.4 µM)
[23]
  MFC50: 64 µg/mL (≈ 198 µM)
  MFC90: >128 µg/mL
[23]; Aspergillus sp.
  MIC: 33.6 µg/mL (≈ 104 µM)
  MIC50: 8 µg/mL (≈ 24.7 µM)
  MIC90: 64 µg/mL (≈ 198 µM)
[24]
  MFC: 32 µg/mL (≈ 99 µM)
  MIC: 16 µg/mL (≈ 49.5 µM)
[25]
  MFC: 32 µg/mL (≈ 99 µM)
  MIC: 8 µg/mL (≈ 24.7 µM)
[26]
  hemolysis: 6%
[27]
  MFC: 32 µg/mL (≈ 99 µM)
  MIC: 8 µg/mL (≈ 24.7 µM)
[28]
  MFC: 2 µg/mL (≈ 6.19 µM)
  MIC: 1 µg/mL (≈ 3.09 µM)
[29]
  MIC: 64 µg/mL (≈ 198 µM)

Reference: ChEMBL document CHEMBL1147026, “Synthesis of pseudopeptides based L-tryptophan as a potential antimicrobial agent” (Bioorg Med Chem Lett, 2007)
